The record followed here is patent US4910195A, “Dihydropyridine derivatives” (Green Cross Corporation, priority 1986, dated 1990).

A short description of this test: Hypotensive effect, systolic pressure by indirect tail-cuff method without anesthesia, oral administration. Type of test: in vivo, male rats, 10- to 11-week-old. The following applies: rats, 10 mg/kg, suspended in 10% HCO-60. As for the experimental part: An experiment was conducted to investigate the hypotensive effects of the dihydropyridine derivatives (I) and acid addition salts thereof on 10- to 11-week-old male rats (3 to 5 animals per group).
For blood pressure determination, systolic pressure was measured without anesthesia by an indirect tail-cuff method using a sphygmomanometer (PE-300, Narco Bio-System).
Each of the test compounds was suspended in 10% HCO-60 (polyoxyethylated castor oil produced by Nikko Chemicals K.K.) and administered orally to the animals in a dose of 10 mg/kg. Blood pressure measurements were conducted at predetermined time intervals.

Regarding `COC(=O)C1=C(C)NC(C)=C(C(=O)OCCN(C)Cc2ccccc2)C1c1cccc([N+](=O)[O-])c1` (centres unmarked) [nicardipine], the “50% recovery time (time required for the reduced blood pressure to return to half the maximal reduction)” value was found to be 3.1 h and the “maximum blood pressure fall” value is given as 20%.
